One compound from PMC5190074, “BET inhibition as a new strategy for the treatment of gastric cancer” (Oncotarget, 2016) can be followed below.

This assay deals with T1, BRD4(1), first bromodomain of BRD4 (Homo sapiens, UniProt O60885).
T1 construct: first bromodomain; BRD4_HUMAN O60884-1 fragment 44-168 (crystallography)
Briefly: biochemical. Also noted: thermal shift assay, SAR of isoxazole compounds against BRD4(1). The following applies: read-out: ΔTm Shift (oC). The protocol: The recombinant bromodomains at 2 μM were mixed with 10 μM inhibitors. The assays and data evaluation for melting temperatures were performed using a Real-Time PCR Mx3005p machine (Stratagene) and the protocols previously described. Experiments profiling the final compound (PNZ5) were performed in quadruplicates. Isoxazoles have been explored previously as BET bromodomain inhibitors. We have developed PNZ5, a new isoxazole-based inhibitor originating from the lead compound S1 (Figure 1). PNZ5 was developed as the result of a structure-based lead optimisation program. Dihydroindene S1 was identified as a ligand against BRD4(1) (pIC50 5.9). Investigation of the co-crystal structure of S1 with BRD4(1) [PDB ID 4GPJ] identified a number of positions for potential optimisation: addition of a carbonyl group at C-3 was envisaged to benefit from hydrogen-bonds (H-bonds) to a network of conserved water molecules; replacement of C-2 with a nitrogen would minimise interactions in the narrow ZA channel of BRD4(1) and N-substitution could provide further binding interactions with the protein; and alternative substitution of the hydroxyl at C-1 would provide a handle for further optimisation. […] The three best compounds, S3, S5 and S7, were destined to be separated into their component enantiomers for further evaluation (Supplementary Table 2). […]

As to `Cc1noc(C)c1-c1ccc2c(c1)C(c1ccccc1)N(C)C2=O` (racemic) [S3], the ΔTm at 10 µM stood at 10.1 °C.
